This is an account of results in patent US20250032477A1, “COMPOUNDS, PHARMACEUTICAL COMPOSITIONS, AND METHODS FOR THE TREATMENT, PREVENTION, OR MANAGEMENT OF HYPERPROLIFERATIVE DISORDERS” (VINCERX PHARMA GMBH, priority 2021, published 2025).

Where two headings read alike, the source gives them in different places. Some results are limits rather than exact numbers.

One data set in a line: in vitro. The settings on record: human, Caco-2. The method, then: (§1) Caco-2: The cell permeability of a substance can be investigated by means of in vitro testing in a flux assay using Caco-2 cells [M. D. Troutman and D. R. Thakker, Pharm. Res. 20 (8), 1210-1224 (2003)]. For this purpose, the cells were cultured for 15-16 days on 24-well filter plates. For the determination of permeation, the respective test substance was applied in a HEPES buffer to the cells either apically (A) or basally (B) and incubated for 2 hours. After 0 hours and after 2 hours, samples were taken from the cis and trans compartments. The samples were separated by HPLC (Agilent 1200, Böblingen, Germany) using reverse phase columns. The HPLC system was coupled via a Turbo Ion Spray Interface to a Triple Quadropol mass spectrometer API 4000 (AB SCIEX Deutschland GmbH, Darmstadt, Germany). The permeability was evaluated on the basis of a Papp value, which was calculated using the formula published by Schwab et al. [D. Schwab et al., J. Med. Chem. 46, 1716-1725 (2003)]. A substance was classified as actively transported when the ratio of Papp (B-A) to Papp (A-B) (efflux ratio) was >2 or <0.5. Compounds with an efflux ratio of 0.5-2 are considered not actively transported. In Table 5, reference compounds are provided for comparison. Ref 1 is exatecan mesylate, Ref 2 is DXd, and Ref 3 is 10,11-methylenedioxy-camptothecin (FL118).

The test system of data set [1] is HT29. The experiment in a line: Cytotoxicity in vitro in the presence and absence of elastase (MTT). It counts as cell-based, human. The following applies: Homo sapiens, HT-29, HT29 cells, 72 h, MTT. The method, then:
(§2) Cultivation of cells was performed according to standard procedures with the media recommended by the provider. The cells, in a total volume of 100 μL, were seeded in a 96-well plate with a white bottom (#3610). After a 24 h incubation period at 37° C. and […], the medium was exchanged by adding 90 μL fresh medium. The treatment started by adding the test compound in 10 μL of culture medium to the cells in triplicates. Concentrations ranging from 10^−5 M to 10^−13 M were chosen. Two identically treated sets of samples were prepared. One set was treated with the test compound alone, whereas to the second set the compound and 10 nM elastase was added followed by a 72 h incubation period at 37° C. and 5% CO2. The proliferation was detected using the MTT assay (ATCC). At the end of the incubation period the MTT reagent was added to all samples for 4 h. Lysis of the cells followed by addition of the detergent was done overnight. The formed dye was detected at 570 nm. The proliferation of untreated but otherwise identically handled cells was define as the […].

The subject of data set [2] is 786-O. Described as above. It counts as cell-based, human. The following applies: Homo sapiens, 786-0, 786-O cells, 72 h, MTT. The method, then:
as §2

In data set [3] the test system is NCI H292. Described as above. The format is cell-based, human. The settings on record: Homo sapiens, NCI H292 cells, 72 h, MTT. The method, then: as §2
The test system of data set [4] is SUM149. Described as above. The format is cell-based. The settings on record: SUM149 cells, 72 h, MTT. The method, then:
as §2

In data set [5] the test system is HT29. The experiment in a line: Cytotoxicity assay (Version 2), automated, AC50, with or without elastase. It counts as cell-based, human. The settings on record: Homo sapiens, HT-29, HT29 cells, Version 2, activity concentration at −50%. The method, then:
as §2
(§3) The Cytotoxicity assay (Version 2) was performed as above described. Some changes were applied as the assays were performed in an automated fashion and the IC50 values determination was changed. Here the change in metabolic activity of the cells, in percent, was calculated by normalization of the measured values to the absorbance values of medium containing wells without cells (=−100%) and the absorbance of the DMSO-treated cells (=0%). AC50 values (activity concentration at −50%) were determined by means of a 4 parameter Hill-fit using GeneData Screener software.

In data set [6] the test system is 786-O. Described as above. The format is cell-based, human. The settings on record: Homo sapiens, 786-0, 786-O cells, Version 2, activity concentration at −50%. The method, then:
as §2, §3

In data set [7] the test system is NCI H292. The data set is described as above. The format is cell-based, human. The following applies: Homo sapiens, NCI H292 cells, Version 2, activity concentration at −50%. The method, then: as §2, §3
Data set [8] concerns SUM149. Described as above. The format is cell-based. The settings on record: SUM149 cells, Version 2, activity concentration at −50%. The method, then:
as §2, §3

The next data set has as its system Caco-2 cells. The experiment in a line: Caco-2 flux assay for cellular permeability. The settings on record: Caco-2 cells; for Caco-2 Flux Papp A-B: apical to basal, 2 hours, HEPES buffer; for Caco-2 Flux Efflux ratio: ratio of Papp (B-A) to Papp (A-B), actively transported when >2 or <0.5. The method, then: as §1
[9] abbreviates: with 10 nM elastase, read-out: HT29 IC50 w elastase.
The mark [10] stands for this setting: without elastase, read-out: HT29 IC50 w/o.
The mark [11] stands for this setting: with 10 nM elastase, read-out: 786-O IC50 w elastase.
Where [12] appears, read: without elastase, read-out: 786-O IC50 w/o.
The mark [13] stands for this setting: with 10 nM elastase, read-out: NCI H292 IC 50 w elastase.
[14] abbreviates: without elastase, read-out: NCI H292 IC 50 w/o.
The mark [15] stands for this setting: with 10 nM elastase, read-out: SUM149 IC50 w elastase.
[16] abbreviates: without elastase, read-out: SUM149 IC50 w/o.

For the compound `CC[C@@]1(O)C(=O)OCc2c1cc1n(c2=O)Cc2c-1nc1cc(F)c(C)c3c1c2[C@@H](NC(C)=O)CC3` [Compound 7, N-[(1S,9S)-9-ethyl-5-fluoro-9-hydroxy-4-methyl-10,13-dioxo-2,3,9,10,13,15-hexahydro-1H,12H-benzo[de]pyrano[3′,4′:6,7]indolizino[1,2-b]quinolin-1-yl]acetamide], in “in vitro”, the Papp A→B at 2 h fell in the range of 0.1 to 0.9 ×10⁻⁶ cm/s. Also, in “in vitro”, the efflux ratio at 2 h was above 2. Also, the IC50 in the data set with HT29 [1] (setting [9]), in the data set with HT29 [1] (setting [10]), in the data set with 786-O [2] (setting [11]), in the data set with 786-O [2] (setting [12]), in the data set with NCI H292 [3] (setting [13]) and in the data set with NCI H292 [3] (setting [14]) was 0.01 to 0.1 nM in each case. The IC50 with SUM149 [4] (setting [15]) and in the data set with SUM149 [4] (setting [16]) was below 0.01 nM throughout.
For `CC[C@@]1(O)C(=O)OCc2c1cc1n(c2=O)Cc2c-1nc1cc(F)c(C)c3c1c2[C@@H](NC(=O)C(F)(F)F)CC3` [Compound 8, N-[(1S,9S)-9-ethyl-5-fluoro-9-hydroxy-4-methyl-10,13-dioxo-2,3,9,10,13,15-hexahydro-1H,12H-benzo[de]pyrano[3′,4′:6,7]indolizino[1,2-b]quinolin-1-yl]-2,2,2-trifluoroacetamide], in the data set “in vitro”, the Papp A→B at 2 h lay in the range of 1 to 9.9 ×10⁻⁶ cm/s. For the same compound, in the data set “in vitro”, the efflux ratio at 2 h is above 2. Besides, the IC50 in the data set with HT29 [1] (setting [9]), in the data set on HT29 [1] (setting [10]), with 786-O [2] (setting [11]), with 786-O [2] (setting [12]), in the data set with NCI H292 [3] (setting [13]) and in the data set with NCI H292 [3] (setting [14]) was 0.01 to 0.1 nM throughout. For the same compound, the IC50 in the data set with SUM149 [4] (setting [15]) and in the data set on SUM149 [4] (setting [16]) was below 0.01 nM in each case.
`CC[C@@]1(O)C(=O)OCc2c1cc1n(c2=O)Cc2c-1nc1cc(F)c(C)c3c1c2[C@@H](NC(=O)Cc1ccncc1)CC3` [Compound 9, N-[(1S,9S)-9-ethyl-5-fluoro-9-hydroxy-4-methyl-10,13-dioxo-2,3,9,10,13,15-hexahydro-1H,12H-benzo[de]pyrano[3′,4′:6,7]indolizino[1,2-b]quinolin-1-yl]-2-(pyridin-4-yl)acetamide]: the apparent permeability from apical to basolateral (Papp A→B) at 2 h in “in vitro” lay within 0.1 to 0.9 ×10⁻⁶ cm/s. The efflux ratio at 2 h in the data set “in vitro” is above 2. In addition, the IC50 in the data set on HT29 [1] (setting [9]) lay in the range of 0.1 to 1 nM; with HT29 [1] (setting [10]) it was 1.1 to 10 nM; in the data set with 786-O [2] (setting [11]), 0.1 to 1 nM; in the data set on 786-O [2] (setting [12]), 0.1 to 1 nM; in the data set on NCI H292 [3] (setting [13]), 0.1 to 1 nM; in the data set with NCI H292 [3] (setting [14]), 0.1 to 1 nM. Moreover, the IC50 in the data set with SUM149 [4] (setting [15]) and in the data set with SUM149 [4] (setting [16]) was 0.01 to 0.1 nM throughout.
`CCN[C@H]1CCc2c(C)c(F)cc3nc4c(c1c23)Cn1c-4cc2c(c1=O)COC(=O)[C@]2(O)CC.O=C(O)C(F)(F)F` [Compound 16, trifluoroacetic acid (1S,9S)-9-ethyl-1-(ethylamino)-5-fluoro-9-hydroxy-4-methyl-1,2,3,9,12,15-hexahydro-10H,13H-benzo[de]pyrano[3′,4′:6,7] indolizino[1,2-b]quinoline-10,13-dione (1/1)] showed a Papp A→B at 2 h in the data set “in vitro” of 10 to 99.9 ×10⁻⁶ cm/s. For the same compound, the efflux ratio at 2 h in the data set “in vitro” is 0.5 to 2. The IC50 in the data set on HT29 [1] (setting [9]), in the data set on HT29 [1] (setting [10]), in the data set on 786-O [2] (setting [11]), in the data set on 786-O [2] (setting [12]), in the data set with NCI H292 [3] (setting [13]) and with NCI H292 [3] (setting [14]) was 0.1 to 1 nM each time. In addition, the IC50 with SUM149 [4] (setting [15]) and in the data set with SUM149 [4] (setting [16]) was 0.01 to 0.1 nM each time.
Consider `CCN(CC)[C@H]1CCc2c(C)c(F)cc3nc4c(c1c23)Cn1c-4cc2c(c1=O)COC(=O)[C@]2(O)CC` [Compound 17, (1S,9S)-1-(diethylamino)-9-ethyl-5-fluoro-9-hydroxy-4-methyl-1,2,3,9,12,15-hexahydro-10H,13H-benzo[de]pyrano[3′,4′:6,7]indolizino[1,2-b]quinoline-10,13-dione], for which the apparent permeability from apical to basolateral (Papp A→B) at 2 h in “in vitro” lay in the range of 10 to 99.9 ×10⁻⁶ cm/s. Besides, the efflux ratio at 2 h in the data set “in vitro” lay within 0.5 to 2. In addition, the IC50 with HT29 [1] (setting [9]), with HT29 [1] (setting [10]), in the data set with 786-O [2] (setting [11]), with 786-O [2] (setting [12]), in the data set on NCI H292 [3] (setting [13]) and in the data set on NCI H292 [3] (setting [14]) was 1.1 to 10 nM each time. Moreover, the IC50 in the data set with SUM149 [4] (setting [15]) and in the data set with SUM149 [4] (setting [16]) was 0.1 to 1 nM each time. Besides, the AC50 in the data set on HT29 [5] (with elastase, read-out: HT29 AC50 +elastase) lay within 11 to 100 nM; with HT29 [5] (without elastase, read-out: HT29 AC50 −elastase), 11 to 100 nM; in the data set with 786-O [6] (with elastase, read-out: 786-O AC50 +elastase), 1.1 to 10 nM; with 786-O [6] (without elastase, read-out: 786-O AC50 −elastase) it was 1.1 to 10 nM; with NCI H292 [7] (with elastase, read-out: NCI H292 AC50 +elastase), 1.1 to 10 nM; in the data set on NCI H292 [7] (without elastase, read-out: NCI H292 AC50 −elastase), 1.1 to 10 nM. Moreover, the AC50 with SUM149 [8] (with elastase, read-out: SUM149 AC50 +elastase) lay within 1.1 to 10 nM; in the data set on SUM149 [8] (without elastase, read-out: SUM149 AC50 −elastase), 1.1 to 10 nM.
Consider `CC[C@@]1(O)C(=O)OCc2c1cc1n(c2=O)Cc2c-1nc1cc(F)c(C)c3c1c2[C@@H](NC(=O)CO)CC3` [Ref 2, DXd, reference compound], for which, in the data set with Caco-2 cells, the “Caco-2 Flux Papp A-B” value is given as “AA (AA: 1-9)” and the “Caco-2 Flux Efflux ratio” value was “A (A: actively transported)”.
The matching figures for `CC[C@@]1(O)C(=O)OCc2c1cc1n(c2=O)Cc2cc3cc4c(cc3nc2-1)OCO4` [Ref 3, 10,11-methylenedioxy-camptothecin, reference compound]: “CC (CC: 100-999)” and “B (B: not actively transported)”.
“exatecan mesylate [Ref 1, reference compound]”: in the data set with Caco-2 cells, the “Caco-2 Flux Papp A-B” value was “CC (CC: 100-999)” and the “Caco-2 Flux Efflux ratio” value is given as “B (B: not actively transported)”.
